Earlier results on three compounds are cited in publication PMC7449315 (Journal for Immunotherapy of Cancer, 2020).

The conditions of the series: early phase I studies, single agent; ref 28 30 31; cited from earlier work.
With `NS(=O)(=O)NCCNc1nonc1C(=NO)Nc1ccc(F)c(Br)c1` [epacadostat], the best overall response entry is recorded as “stable disease”.

In the case of `Cn1cc(C[C@@H](N)C(=O)O)c2ccccc21` [indoximod], the best overall response result was “stable disease”.

Take `O[C@H](C[C@H]1c2c(F)cccc2-c2cncn21)[C@H]1CC[C@H](O)CC1` [navoximod]: the best overall response entry is listed as “stable disease”.
